Source: patent US8048874B2, “Beta-lactamyl phenylalanine, cysteine, and serine vasopressin antagonists” (Azevan Pharmaceuticals, Inc., priority 2005, dated 2011)

Legend:
human V1a receptors = biological target: T1, human V1a receptors (Homo sapiens, UniProt P37288); experiment: Human vasopressin V1a cell-based receptor binding assay (3H-AVP competition)
T1 construct: expressed in transfected cells; host or cells: CHO cells
Description: Human or rat vasopression V1a, V1b, and/or V2 cell-based receptor binding assay. The V1a, V1b, and/or V2 cell lines (cells expressing either the human or rat V1a, V1b, and/or V2 receptors) were grown in alpha-MEM medium supplemented with 10% fetal bovine serum and 250 ug/ml G418 (Gibco, Grand Island, N.Y.) in 75 cm^2 flask. For competitive binding assay, hV1b cells were dissociated with enzyme-free, PBS based cell dissociation solution (Specialty Media, Phillipursburg, N.J.), following the manufacturer's protocol. Cells were plated into 12-well culture plates at a rate of one flask to 18 plates (rate should be adjusted according to the extent of confluency), and maintained in culture for 2-3 days. Culture medium was then removed, cells were washed once with 2 ml binding buffer (25 mM Hepes, 0.25% BSA, 1×DMEM, PH=7.0) at room temperature. To each well, 990 ul binding buffer containing 1 nM ^3H-AVP was added, and followed by the addition of 10 ul series diluted testing compounds or cold AVP, all dissolved in DMSO. […] Cells were incubated for 30 min at 37° C. in a moisturized incubator. Assay mixture was then removed and each well was washed three times with PBS (pH=7.4). […] Samples were counted in a liquid scintillation counter (Beckman LS3801). IC50 and Ki values were calculated using Prism Curve fitting software. […]

human V1b receptors = biological target: T2, human V1b receptors (Homo sapiens, UniProt P47901); experiment: Human vasopressin V1b cell-based receptor binding assay (3H-AVP competition); settings: cells expressing human V1b receptor, 1 nM 3H-AVP
T2 construct: expressed in transfected cells
T2 sequence (P47901 1-424): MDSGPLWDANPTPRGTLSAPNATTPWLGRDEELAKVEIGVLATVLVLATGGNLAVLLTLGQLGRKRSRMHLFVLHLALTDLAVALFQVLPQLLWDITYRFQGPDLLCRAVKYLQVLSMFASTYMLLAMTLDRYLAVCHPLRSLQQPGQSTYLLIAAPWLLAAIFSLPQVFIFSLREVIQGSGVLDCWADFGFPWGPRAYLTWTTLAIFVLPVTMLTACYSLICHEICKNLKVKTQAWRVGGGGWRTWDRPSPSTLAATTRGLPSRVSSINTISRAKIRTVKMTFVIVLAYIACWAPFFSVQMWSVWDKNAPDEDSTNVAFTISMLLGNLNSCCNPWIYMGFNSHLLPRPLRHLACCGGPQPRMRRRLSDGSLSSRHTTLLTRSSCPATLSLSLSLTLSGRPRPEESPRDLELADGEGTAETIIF
Description: Human vasopression VIb receptor-expressing cells. Human vasopressin receptor 1B (HV1B) cDNA (see, Lolait et al., “Extrapituitary expression of the rat V1b vasopressin receptor gene” Proc. Natl. Acad. Sci. USA. 92:6783-7 (1995); de Keyzer et al., “Cloning and characterization of the human V3(V1b) pituitary vasopressin receptor” FEBS Lett. 356:215-20 (1994); Sugimoto et al., “Molecular cloning and functional expression of a cDNA encoding the human V1b vasopressin receptor” J. Biol. Chem. 269:27088-92 (1994)) was inserted into a mammalian cell expression vector PCI-neo (Promega) at EcoR1 site. The recombinant plasmid carrying HV1B cDNA was identified from transformed E. Coli clones and used for the transfection of Chinese hamster ovary cell (CHO-K1, ATCC). Two micrograms of HV1B receptor DNA was introduced into 10^5 CHO cells cultured in 6-well plate, using Fugene-6 mediated transfection technique (Boehringer Mannheim). Twenty-four hrs post transfection, Cells were then cultured under selection of G-418 (0.25 mg/ml) supplemented to the culture medium. Three days later, limited dilution was carried out to obtain single cell clones in 96-well plates. […]
Human or rat vasopression V1a, V1b, and/or V2 cell-based receptor binding assay. […] Samples were counted in a liquid scintillation counter (Beckman LS3801). IC50 and Ki values were calculated using Prism Curve fitting software. […]

T1 sequence (P37288 whole entry): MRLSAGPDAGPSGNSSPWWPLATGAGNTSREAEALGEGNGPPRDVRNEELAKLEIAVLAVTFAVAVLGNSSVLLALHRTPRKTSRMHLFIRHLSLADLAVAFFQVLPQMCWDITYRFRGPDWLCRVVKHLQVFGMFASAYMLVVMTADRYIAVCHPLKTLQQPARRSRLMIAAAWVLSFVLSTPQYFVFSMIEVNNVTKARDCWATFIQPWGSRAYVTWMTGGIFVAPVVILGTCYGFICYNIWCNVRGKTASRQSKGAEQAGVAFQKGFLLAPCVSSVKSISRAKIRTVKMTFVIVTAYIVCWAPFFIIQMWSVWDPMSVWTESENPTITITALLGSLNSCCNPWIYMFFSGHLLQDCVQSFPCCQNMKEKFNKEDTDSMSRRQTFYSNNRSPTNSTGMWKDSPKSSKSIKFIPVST

O=C(C(CSCc1ccccc1)N1C(=O)C(N2C(=O)OCC2c2ccccc2)C1C=Cc1ccccc1)N1CCC(CCN2CCCCC2)CC1 [Example 9B, (2S)-(Benzylthiomethyl)-2-[3(S)-(4(S)-phenyloxazolidin-2-on-3-yl)-4(R)-(2-styryl)azetidin-2-on-1-yl]acetic acid N-[4-[2-(piperid-1-yl)ethyl]piperidin-1-yl]amide]
Ki (human V1a receptors; FIG. 1, competitive binding assay in CHO cells transfected with human V1a receptor, read-out: human V1b binding affinity (Ki)): 0.07 nM | IC50 (human V1a receptors; cells expressing human V1a receptor, 1 nM 3H-AVP, read-out: Human V1a Binding Affinity (IC50 (nM))): 0.11 nM | IC50 (human V1b receptors; read-out: Human V1b Binding Affinity (IC50 (μM))): 1.1 µM | Ki (human V1b receptors; read-out: Human V1b Binding Affinity (Ki (μM))): 0.69 µM
